Measurements taken from ChEMBL document CHEMBL4177765, “Structure-Based Design of Inhibitors Targeting PrfA, the Master Virulence Regulator of Listeria monocytogenes” (J Med Chem, 2018).
Activity calls are given as the source filed them. The calls are words filed in the database; no cut-off is given here.

Assays:
[1] = target: T1, Listeriolysin regulatory protein (Listeria monocytogenes serovar 1/2a (strain ATCC BAA-679 / EGD-e)) (UniProt P22262); experiment: Inhibition of PrfA in Listeria monocytogenes EGD-e assessed as downregulation of ActA expression at 1 uM by Western blot method
T1 sequence (whole entry): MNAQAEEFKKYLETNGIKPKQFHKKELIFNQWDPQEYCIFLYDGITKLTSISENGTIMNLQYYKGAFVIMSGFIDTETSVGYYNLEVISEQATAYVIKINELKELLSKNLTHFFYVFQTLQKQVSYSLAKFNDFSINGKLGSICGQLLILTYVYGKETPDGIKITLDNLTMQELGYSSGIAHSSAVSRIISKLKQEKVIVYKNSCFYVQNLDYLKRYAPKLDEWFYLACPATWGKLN

[2] = target: T2, Listeriolysin regulatory protein (Listeria monocytogenes serovar 1/2a (strain ATCC BAA-679 / EGD-e), UniProt P22262); experiment: Binding affinity to Listeria monocytogenes 6-His-tagged PrfA expressed in Escherichia coli BL21 (DE3) pLysS assessed as inhibition of protein binding with biotinylated hpt-DNA by SPR method
T2 sequence (P22262 whole entry): T1 sequence (whole entry)

[3] = target: T1, Listeriolysin regulatory protein (Listeria monocytogenes serovar 1/2a (strain ATCC BAA-679 / EGD-e)); experiment: Inhibition of PrfA in Listeria monocytogenes EGD-e assessed as downregulation of LLO expression at 10 uM by Western blot method
[4] = target: T1, Listeriolysin regulatory protein (Listeria monocytogenes serovar 1/2a (strain ATCC BAA-679 / EGD-e)); experiment: Inhibition of PrfA in Listeria monocytogenes EGD-e assessed as downregulation of ActA expression at 10 uM by Western blot method
[5] = target: T1, Listeriolysin regulatory protein (Listeria monocytogenes serovar 1/2a (strain ATCC BAA-679 / EGD-e)); experiment: Inhibition of PrfA in Listeria monocytogenes EGD-e assessed as downregulation of LLO expression at 1 uM by Western blot method
[6] = target: T1, Listeriolysin regulatory protein (Listeria monocytogenes serovar 1/2a (strain ATCC BAA-679 / EGD-e)); experiment: Binding affinity to GFP expressing Listeria monocytogenes EGD-e PrfA expressed in Escherichia coli assessed as inhibition of bacterial uptake in human Caco2 cells at 20 uM incubated for 4 hrs by flow cytometric method relative to (R)-8-cyclopropyl-7-(naphthalen-1-ylmethyl)-5-oxo-3,5-dihydro-2H-thiazolo[3,2-a]pyridine-3-carboxylic acid
[7] = target: T1, Listeriolysin regulatory protein (Listeria monocytogenes serovar 1/2a (strain ATCC BAA-679 / EGD-e)); experiment: Binding affinity to Listeria monocytogenes 6-His-tagged PrfA expressed in Escherichia coli BL21 (DE3) pLysS by ITC method
Listeria monocytogenes [8] = experiment: Effect on growth of Listeria monocytogenes EGD-e at 100 uM after 7 hrs; type: organism-based; conditions: in vivo
Gallus gallus = species on record: Gallus gallus; experiment: Toxicity in chicken embryo at 4 to 8 uM measured over 72 hrs; type: organism-based; conditions: in vivo
Listeria monocytogenes [9] = experiment: Antivirulence activity against Listeria monocytogenes EGD-e infected in chicken embryo assessed as increase in embryo life span at 5 uM measured over 72 hrs; type: functional
[10] = target: T1, Listeriolysin regulatory protein (Listeria monocytogenes serovar 1/2a (strain ATCC BAA-679 / EGD-e)); experiment: Binding affinity to GFP expressing Listeria monocytogenes EGD-e PrfA expressed in Escherichia coli assessed as inhibition of bacterial uptake in human Caco2 cells at 1 uM incubated for 4 hrs by flow cytometric method relative to control
Listeria monocytogenes [11] = experiment: Effect on PrfA expression in Listeria monocytogenes EGD-e at 1 uM by Western blot method; type: functional

For `O=C(O)[C@@H]1CSc2c(C3CC3)c(Cc3cccc4ccccc34)cc(=O)n21`, the inhibition [1] was “Active”, the IC50 [2] was 4.5 µM and the inhibition [3] was “Active”. The inhibition [4] was “Active” and the inhibition [5] was “Active”.

`Cc1ccc(Cc2cc(=O)n3c(c2C2CC2)SC[C@H]3C(=O)O)c2ccccc12` gave a fold change (FC) [6] of 0.5.

For `O=C(O)[C@@H]1CSc2c(C3CC3)c(Cc3cnc4ccccc4c3)cc(=O)n21`, the fold change (FC) [6] was 13.

In the case of `CN(C)c1c(Cc2cccc3ccccc23)cc(=O)n2c1SCC2C(=O)O.Cl` (racemic), the Activity [7] is reported as “Active”, the inhibition [1] is reported as “Active” and the IC50 [2] is reported as 1.8 µM. For the same molecule, the Activity (Listeria monocytogenes [8]) was “Non-Toxic”, the inhibition [3] was “Active” and the inhibition [4] was “Active”. For the same molecule, the inhibition [5] was “Active” and the fold change (FC) [6] was 0.7.

For `COc1c(Cc2cccc3ccccc23)cc(=O)n2c1SCC2C(=O)O` (racemic), the Activity [7] was “Active”, the inhibition [1] was “inactive” and the IC50 [2] was 65.6 µM. For the same molecule, the inhibition [3] was “inactive”, the inhibition [4] was “inactive” and the inhibition [5] was “inactive”. The fold change (FC) [6] was 7.

`Cc1cccc(Cc2cc(=O)n3c(c2N(C)C)SCC3C(=O)O)c1C` (racemic) was tested, and the Activity [7] was “Active”, the inhibition [1] was “Active” and the IC50 [2] was 3 µM. The Activity (Listeria monocytogenes [8]) was “Non-Toxic”, the inhibition [3] was “Active” and the inhibition [4] was “Active”. The inhibition [5] was “Active” and the fold change (FC) [6] was 0.6.

In the case of `C=CCOc1c(Cc2cccc3ccccc23)cc(=O)n2c1SCC2C(=O)O` (racemic), the fold change (FC) [6] is reported as 4.

Molecule `CC(=O)Nc1c(Cc2cccc3ccccc23)cc(=O)n2c1SCC2C(=O)O` (racemic) has a fold change (FC) [6] of 5.

`CC(C)COc1c(Cc2cccc3ccccc23)cc(=O)n2c1SCC2C(=O)O` (racemic) showed a fold change (FC) [6] of 4.

In the case of `CC(C)Nc1c(Cc2cccc3ccccc23)cc(=O)n2c1SCC2C(=O)O` (racemic), the fold change (FC) [6] is reported as 3.

With `CCOc1c(Cc2cccc3ccccc23)cc(=O)n2c1SCC2C(=O)O` (racemic) the fold change (FC) [6] was 5.

In the case of `CCc1cc(=O)n2c(c1N(C)C)SCC2C(=O)O` (racemic), the fold change (FC) [6] is reported as 10.

`COC(=O)Nc1c(Cc2cccc3ccccc23)cc(=O)n2c1SCC2C(=O)O` (racemic) was tested, and the fold change (FC) [6] was 6.

`CS(=O)(=O)Nc1c(Cc2cccc3ccccc23)cc(=O)n2c1SCC2C(=O)O` (racemic) showed a fold change (FC) [6] of 5.

With `CS(=O)(=O)c1c(Cc2cccc3ccccc23)cc(=O)n2c1SCC2C(=O)O` (racemic) the fold change (FC) [6] was 7.

In the case of `Nc1c(Cc2cccc3ccccc23)cc(=O)n2c1SCC2C(=O)O` (racemic), the fold change (FC) [6] is reported as 3.

For `O=C(O)C1CSc2c(O)c(Cc3cccc4ccccc34)cc(=O)n21` (racemic), the fold change (FC) [6] was 5.

`Cc1ccc(Cc2cc(=O)n3c(c2N(C)C)SCC3C(=O)O)c2ccccc12` (racemic; form 1) [listing 1 of 2 here] was tested, and the IC50 [2] was 1.5 µM, the Activity (Listeria monocytogenes [8]) was “Non-Toxic” and the Activity (Gallus gallus) was “Non-Toxic”. The ILS (Listeria monocytogenes [9]) was 6 h.

For `Cc1ccc(Cc2cc(=O)n3c(c2N(C)C)SCC3C(=O)O)c2ccccc12` (racemic; form 1) [listing 2 of 2 here], the Activity [7] was “Active”, the inhibition [10] was 90% and the inhibition [1] was “Active”. The inhibition [5] was “Active”, the fold change (FC) [6] was 0.7 and the Activity (Listeria monocytogenes [11]) was “inactive”.

`Cc1ccc(Cc2cc(=O)n3c(c2N(C)C)SCC3C(=O)O)c2ccccc12.c1c[nH]cn1` (racemic; form 2) gave an ILS (Listeria monocytogenes [9]) of 9 h.
